Assay results: patent publication US20020183258A1, “Process of inhibiting cell death in injured cartilage” (The Scripps Research Institute, priority 2001, published 2002)
“Also recorded” adds a separate entry of the source. Where a SMILES comes first, the peptide text is derived from it. The star is where a group is joined. Cbz = O=C(OCc1ccccc1)*; CH2F = FC*

Experiments:
[1] = system: bovine cartilage explants; assay: Load-induced chondrocyte apoptosis (TUNEL) in mechanically injured bovine cartilage explants; format: cell-based; conditions: for Mean (±SD) apoptosis rates, Loaded + Agent: bovine femoral condyle cartilage, loaded at 23 MPa, rate = percentage of TUNEL positive cells, n = 8 to 10
Source text: Macroscopically normal weight bearing portions of freshly slaughtered skeletally mature bovine femoral condyles were selected from animals between 2 and 6 years of age (Animal Technologies, Austin, Tex.). Only joints without visible signs of degeneration or aging were selected. Using sterile techniques, fall thickness cartilage was separated from underlying subchondral bone with a scalpel and 5 mm diameter cylindrical explants, ranging from 1 to 1.8 mm in height, cored out using a dermal punch (Acuderm, Inc., Ft. Lauderdale, Fla.). Explants taken from adjacent sites were used as matched controls for each group in each experiment to minimize variation in cartilage response due to differences in thickness and location within the joint. Each explant was weighed and allowed to stabilize at 37° C. and 5% CO2 for 48 hours in 1 ml of Dulbecco's modified Eagle's medium (DMEM) supplemented with 10% fetal bovine serum (FBS), L-glutamine, antibiotics and 50 μg/ml ascorbic acid.
Full thickness bovine cartilage explants, 5 mm in diameter, were subjected to a single static mechanical load of 7, 14 or 23 MPa for 500 msec. This model simulates traumatic cartilage injury and the loads were similar in magnitude to those generated during traumatic joint injury. Glycosaminoglycan (GAG) release and percent apoptotic cells were measured. The effect of a pan-caspase inhibitor, z-VAD.fmk [benzyloxycarbonyl-Val-Ala-Asp (OMe) fluoromethylketone] in preventing chondrocyte apoptosis was determined. z-VAD.fmk is a fluoromethylketone irreversible inhibitor of a broad spectrum of caspases. […] The percentage of apoptotic chondrocytes was related to load intensity and correlated with the level of GAG release from cartilage. […] This identifies a new approach to limit traumatic cartilage injury and the subsequent development of secondary osteoarthritis.
A model to simulate acute joint injury was used in this study based on injury models reported by Repo and Finlay, and Jeffrey et al. (Repo, et al. (1977) J. Bone Joint Surg. Am. 59A, 1068-1076, Jeffrey, et al. (1995) Arch. Biochem. Biophys. 322, 87-96). Although these reported models impacted cartilage using drop towers, a more controlled method was chosen for applying and maintaining stress or strain as follows. An Instron 8511 servohydraulic testing machine (Instron Corporation, Boston, Mass.) was used to mechanically load the cartilage explants. Explants were transported from the incubator to the Instron machine in sealed cell culture dishes. The explant was centralized on a stainless steel loading platform and a radially unconfined compressive load was applied through an impermeable stainless steel platen. A small preload (0.1 MPa) was applied for 2 minutes, followed by a single 500 msec trapezoidal loading waveform at the selected stress. The stress rose from 0.1 MPa to the chosen stress level in 100 msec and was maintained for 500 msec. Three stress levels were chosen to represent acute joint injury. 7 MPa has been reported to be the upper limit of physiologic stress developed during activities of daily living (von Eisenhart, et al. (1999) J. Orthop. Res. 17, 532-539). 23 MPa is the stress above which the underlying bone has been reported to fracture (Haut (1989) J. Orthop. Res. 7, 272-280). Control explants were placed in the loading apparatus but not loaded. Both control and loaded explants were re-cultured in fresh culture media immediately after loading. Stress and strain data were recorded during the test. […]

[2] = system: human cartilage explants; assay: Load-induced chondrocyte apoptosis (TUNEL) in mechanically injured human cartilage explants; format: cell-based; conditions: for Mean (±SD) apoptosis rates, Loaded + Agent: human cartilage (femoral condyles and tibial plateaus), n = 8 to 10
Source text: Macroscopically normal tibial and femoral articular surfaces were selected from human cadaver donors between 18 and 45 years of age. Using sterile techniques, full thickness cartilage was separated from underlying subchondral bone with a scalpel. 5 mm diameter cylindrical explants, ranging from 2 to 2.8 mm in thickness, cored out using a dermal punch (Acuderm, Inc., Ft. Lauderdale, Fla.). Explants taken from adjacent sites were used as matched controls for each group in each experiment to minimize variation in cartilage response due to differences in thickness and location within the joint. Each explant was weighed and allowed to stabilize at 37° C. and 5% CO2 for 48 hours in Dulbecco's modified Eagle's medium (DMEM) supplemented with 5% fetal bovine serum (FBS), L-glutamine, antibiotics and […] ascorbic acid.
An Instron 8511 servohydraulic testing machine (Instron Corporation, Boston, Mass.) was used to mechanically load the cartilage explants. Explants were transported from the incubator to the Instron machine in sealed cell culture dishes. The total time duration of loading for a single experiment varied from approximately 1 to 2 hours depending on the number of samples. […] Stress and strain data were recorded during the test.
To determine whether caspase inhibitors could prevent apoptosis, explants were cultured in […] z-VAD.fmk (a broad spectrum caspase inhibitor) immediately after injury (30% strain level). Percentage apoptosis was measured at 96 hours post-injury in three groups (control, loaded, and loaded with z-VAD.fmk) with ten explants each in two separate experiments.
Explants loaded as described above were fixed in 10% buffered formalin. […] This was detected by immunohistochemical staining with M30 (Cytodeath, Boehringer Mannheim, Eugene, Oreg.), a monoclonal antibody that recognizes the neo-epitope exposed in early apoptosis.
In an additional study the apoptosis response of human articular cartilage to mechanical stress was examined. […] GAG release and percentage of cells undergoing apoptosis were measured at 96 hours after injury. […]

[3] = system: bovine cartilage explants; assay: Glycosaminoglycan (GAG) release assay (dimethylene blue) in injured bovine cartilage explants; format: cell-based; conditions: loaded, z-VAD.fmk 100 μM, 48 hours
Procedure: Glycosaminoglycan release assay. To estimate GAG depletion and release, the concentration of sulfated glycosaminoglycans was measured using 1,9-Dimethylene Blue (DMMB) as a monitor of spectrophotometric changes which occur during the formation of the sulfated GAG dye complex (Fardale, et al. (1986) Biochim. Biophys. Acts. 883, 173-177, Goldberg, et al. (1993) Agents Actions 39 Spec No, C163-C165). For GAG content measurement, samples were digested in papain and collagenase and the concentration of sulfated GAG measured using DMMB. To generate a standard curve, chondroitin-6-sulfate (Sigma, St. Louis, Mo.) was used at concentrations between 1 and 200 μg/ml. GAG released in media was normalized to the pooled mean GAG content of Control (uninjured) cartilage explants and expressed as a percentage of total GAG content.
To determine whether apoptosis could be prevented by caspase inhibition, 12 explants were loaded at 23 MPa (High Load) and cultured for 48 hours. […] Six more explants were used as non-loaded controls. Percent apoptosis and GAG release in media was measured as described above.
Release of sulfated glycosaminoglycans (GAG) was analyzed as a measure of the extent of damage sustained by the explant. […] GAG depletion was assessed by dimethylene blue binding assays of the culture supernatants and this correlated with the reduced of safranin O staining of the cartilage sections.

[4] = system: rabbits with ligament transection; assay: Intraarticular injection of caspase inhibitor in rabbits with anterior cruciate ligament transection (ACLT); format: in vivo, New Zealand White rabbits
Procedure: A pilot study was performed to assess feasibility and efficacy of caspase inhibition in vivo. Eight New Zealand White rabbits were divided into anterior cruciate ligament transection (ACLT) and ACLT+caspase inhibitor (CI) groups. Both groups underwent bilateral ACLT. The ACLT+CI group was treated with intra-articular injections of 25 μg of z-VAD.fmk three times per week for six weeks while the control group received saline injections. Rabbits were euthanised at six weeks and femoral and tibial articular cartilage evaluated by India ink staining and histologic Mankin grading after Safranin-O stain.
Histologically, more knees from the ACLT group had higher Mankin scores. 87% (⅞) ACLT knees had grades 5 or higher, while 50% ( 4/8) ACLT+CI knees were graded 5 or higher. The India ink stained femoral condyles were photographed and digital images were used to quantify the surface areas of the lesions.

C[C@@H]1C[C@H]2[C@@H]3CCC4=CC(=O)C=C[C@]4(C)[C@@]3(F)[C@@H](O)C[C@]2(C)[C@@]1(O)C(=O)CO [Dexameth.]
Mean (±SD) apoptosis rates, Loaded + Agent [1]: 47 (±11.2)

COC(=O)CC(NC(=O)C(C)NC(=O)C(NC(=O)OCc1ccccc1)C(C)C)C(=O)CF (stereo not drawn) [z-VAD.fmk, benzyloxycarbonyl-Val-Ala-Asp (OMe) fluoromethylketone] (Cbz-Val-Ala-Asp(OMe)-CH2F; configuration not given here)
reduction in the apoptosis rate ([1]; bovine explants, high and intermediate load groups, vs loaded without agent): > 50% | effect on chondrocyte apoptosis after mechanical injury ([1]; bovine explants, single static load, 500 msec): reduced chondrocyte apoptosis after mechanical injury | Mean (±SD) apoptosis rates, Loaded + Agent [1]: 31 (±13.9) | Mean (±SD) apoptosis rates, Loaded + Agent ([2]; loaded at 23 MPa (footnote *)): 34 (±10.2)* | reduction in apoptosis rates ([2]; human explants, 30% strain, cultured in 100 mM z-VAD.fmk after injury, 96 hours post-injury, p<0.05): 50% | effect on GAG release / GAG depletion after mechanical injury [3]: reduction in GAG release; also recorded: normalization of the GAG depletion | reduction of the size (surface area) of the cartilage lesions ([4]; rabbit ACLT, India ink stained femoral condyles, digital images, six weeks, 25 μg intra-articular three times per week): ~80% | India ink grade of cartilage lesions ([4]; rabbit ACLT, six weeks, 25 μg intra-articular three times per week (ACLT saline: grade III to IVa)): ranged from II (minimum fibrillation), with only one rabbit (two knees) having a Grade III to IVa lesion | area of cartilage lesions under India ink examination ([4]; rabbit ACLT, six weeks, vs ACLT saline group): lesions that were smaller in area | knees with histologic Mankin grades 5 or higher ([4]; rabbit bilateral ACLT, 25 μg intra-articular three times per week for six weeks, 4/8 knees (ACLT saline 87%)): 50%

IGF-1: agent tested for pharmacologic modulation of apoptosis after cartilage injury in vitro
Mean (±SD) apoptosis rates, Loaded + Agent [1]: 42 (±10.9) | Mean (±SD) apoptosis rates, Loaded + Agent ([2]; loaded at 30% strain): 10 (±6.2)
